Source: patent publication US20020120242A1, “Absorbent articles with hydrophilic compositions containing botanicals” (priority 2000, published 2002)
Values joined by “and” are separate entries in the source; they are usually repeats but may differ in a detail not shown here. Identical values can stand only once. Like-named read-outs stand apart in the source and are kept apart here. Marks after values point to notes of the source that are not given here.

Tests used:
interleukin-1 alpha [1] = test: EPIDERM skin culture irritation test, fecal protease (trypsin-chymotrypsin) insult, IL-1 alpha release; format: cell-based, human
Method: In order to evaluate the efficacy of the compositions of the invention, a human skin culture was selected to model the response of the human epidermis. EPIDERM skin culture is a cornified, air-interfaced human skin culture. EPIDERM skin culture has multiple layers of progressively differentiated keratinocytes resembling human epidermis. EPIDERM EPI-200 skin culture can be purchased from MatTek Corporation of Ashland, Mass. Experiments using EPIDERM skin culture are conducted in six well plates. Typically, five EPIDERM skin culture inserts are added to five of the six wells. Each well contains one milliliter of pre-warmed media that is the same as the EPIDERM skin culture media. The plates are then incubated in a 37° C., 5% CO2 incubator for thirty minutes. After incubation, 15 microliters of test composition or control are applied to the surface of the EPIDERM skin culture after removing any residual media. The well plates, with the test compositions/control applied, are incubated in the 37° C., 5% CO2 incubator for thirty minutes after which the underlying media is removed and replaced with fresh, pre-warmed media. Next, ten microliters of insult solution, either fecal protease or bile acid, are applied to the surface of the EPIDERM skin culture.
The insult solution is prepared by diluting a 10 mg/ml stock solution in phosphate-buffered saline to a working concentration of 250 µg/ml. The base of the stock solution is 50 mM NaOAcetate, pH 5.5 and 0.15 M NaCl stored at −80° C. […] The bile acid insult solution can be prepared by dissolving 65 mg of cholic acid, 62 mg of deoxycholic acid and 31 mg of chenodeoxycholic acid in 10 ml of phosphate-buffered saline. The bile acid insult components can be purchased from Sigma Chemical Co. of St. Louis, Mo. Phosphate-buffered saline, pH 7.4 (hereinafter “PBS”) can be purchased from Life Technologies of Rockville, Md.
For internal studies, infant feces were collected and the amount of total protease and trypsin activities determined for each of the fecal extracts. To prepare the extract, the feces were suspended in water and vigorously vortexed. After vortexing, the samples were held on ice prior to centrifugation at 15,000 times the force of gravity for 20 minutes. The supernatant was filtered through 0.22 micron cellulose acetate filters and stored at −80° C. until use.
After application of the insult solution, the well plates are incubated for six hours in the 37° C., 5% CO2 incubator. At the end of six hours, the well plates are removed from the incubator, the underlying media is removed and stored at −80° C. The response of the EPIDERM skin culture to the test compositions/control and the insult solution is determined by measuring the amount of interleukin-1 alpha (hereinafter “IL-1”). Interleukin-1 alpha can be quantified using an Interleukin-1 alpha Quantikine Kit available from R&D Systems of Minneapolis, Minn. Interleukin-1 alpha measurements are converted to Log10 for each of the treatments and the averages for each treatment are calculated. In order to determine the ability of the test compositions to reduce skin irritation caused by the biological insults, the percent mean reduction of IL-1 is calculated as follows: [formula]
EPIDERM skin culture studies were conducted to measure the reduction in IL-1 response between compositions of the invention and a fecal protease-induced irritation. The studies were conducted using botanicals that are representative of the invention.

EPIDERM skin culture [2] = test: MTT viability assay on EPIDERM skin culture after test composition + insult
Excerpt: (§1) The MTT dye is taken up by the cells. The reduction of the dye as a result of cellular metabolism can be used to measure the cytotoxicity of the test compositions. In order to confirm viability, inserts of the EPIDERM skin culture that have already been subjected to the test compositions and biological insults are removed from their media and are washed consecutively through immersion in three different beakers of PBS. Fresh PBS is used for each test composition or control being evaluated. The PBS is discarded onto paper towel. The EPIDERM skin culture inserts are then patted onto paper towel and placed into the wells of a 24 well plate containing 300 microliters of pre-warmed media. After all of the EPIDERM skin culture inserts are washed, they are transferred to new 24 well plates containing 300 microliters of the MTT reagent. The MTT reagent is thiazolyl blue having the formula 3-[4,5-Dimethylthiazol-2-yl]-2,5-diphenyltetrzoliumbromide. The plates are incubated for 2 hours in a 37° C., 5% CO2 incubator. After incubation, the EPIDERM skin culture inserts are transferred to 24 well plates and are immersed in 2 milliliters of MTT extraction buffer. The extraction buffer extracts the MTT reagent from the cells. The 24 well plates are parafilmed, covered and placed in ZIPLOCK bags to reduce evaporation of the extraction buffer. The covered plates are rocked overnight in the dark. Following overnight rocking, the liquid in the EPIDERM skin culture inserts is decanted back into the wells. The contents of each well are mixed and a 200 microliter aliquot is then removed from each well and transferred to a 96 well plate. The optical density (OD) of the samples is measured at 570 nm using a spectrophotometer. Five hundred seventy nanometers is the optimal wavelength at which to measure the reduced form of MTT reagent. This reading is subtracted from a background reading at 650 nm to improve data quality. Percent viability of each test composition+insult relative to the control+PBS is recorded as the Mean ODtest composition+insult divided by the Mean ODcontrol+PBS; the quotient then multiplied by 100.

interleukin-1 alpha [3] = test: EPIDERM skin culture irritation test, protease and bile acid insult, IL-1 alpha release; format: cell-based, human; conditions: 4 mg/ml in water, 30 minutes pretreatment; protease and bile acid insult 6 hours; sample size six
Method: An additional set of EPIDERM skin culture experiments was conducted to predict the effect of extracted botanical actives on the irritation response to a protease and bile acid insult. The method for utilizing the EPIDERM skin culture described above was also used for this set of experiments evaluating response to a protease and bile acid insult. The EPIDERM skin culture was pretreated with 15 l of test composition containing 4 mg/ml of epigallocatecin gallate in water for a period of 30 minutes in a 37° C./5% CO2 incubator. The skin culture wells were then treated with 10 µl of a protease and bile acid insult for 6 hours under the same incubation conditions. Phosphate-buffered saline solution of pH 7.4 was used as a negative control. After 6 hours, the underlying media is removed and stored at -80° C. The amount of IL-1 from the media was quantified using an Interleukin-1 alpha Quantikine Kit available from R&D Systems of Minneapolis, Minn. The protease and bile acid insult was prepared by mixing equal volumes of a bile acid insult with a protease insult. The bile acid insult included 13 mg/ml cholic acid (sodium salt), 12.4 mg/ml deoxycholic acid (sodium salt) and 6.2 mg/ml chenodeoxycholic acid (sodium salt) prepared in pH 7.4 phosphate-buffered saline. […]

[4] = target: T1, porcine pancreatic trypsin (Sus scrofa, UniProt P00761); test: Trypsin inhibition in solution with BAPNA chromogenic substrate; format: biochemical; conditions: for Trypsin Inhibition (IC50): solid form dissolved in PBS
T1 construct: purchased Sigma Chemical of St. Louis, Mo; host or cells: pancreas (porcine)
Method: More specifically, compositions of the invention were evaluated for their inhibitory effect on porcine pancreatic trypsin in solution. Porcine pancreatic trypsin from Sigma Chemical of St. Louis, Mo. was prepared at a concentration of 1600 ng/ml in 100 mM Tris-HCL pH 8.0-buffer. Twenty-five microliters of the porcine pancreatic trypsin was added to the wells of a NUNC IMMUNO clear 96 well plate. The wells also contained 150 µl of 100 mM Tris-HCL pH 8.0 buffer and 25 µl of a test composition diluted as necessary in PBS. After a fifteen minute incubation at room temperature, the reaction is initiated by adding 50 µl of a 5 mM solution of chromogenic trypsin substrate (N-benzyl-arginine-p-nitroanalide (BAPNA)) to each of the wells. The BAPNA is prepared at 50 mM in neat dimethylsulfoxide and diluted in water to a 5mM working stock solution. In order to measure the progress of the reactions, optical density measurements were taken at 405 nm every 20 seconds (after a two minute delay) for 10 minutes with a THERMOMAX Microplate Reader (Molecular Devices, Sunnyvale, Calif.). […] Below. The IC50 value is based on a dilution of the liquid stock botanical. The actual concentration of the botanical/salt compositions is not known except for those compositions available in solid form. For the solid forms, stock concentrations in PBS can be accurately made up.

EPIDERM skin culture [5] = conditions: human, 4 mg/ml
Excerpt: as §1

[6] = 4 mg/ml in PBS, trypsin-chymotrypsin insult (Table 3)

T1 sequence (P00761 9-231): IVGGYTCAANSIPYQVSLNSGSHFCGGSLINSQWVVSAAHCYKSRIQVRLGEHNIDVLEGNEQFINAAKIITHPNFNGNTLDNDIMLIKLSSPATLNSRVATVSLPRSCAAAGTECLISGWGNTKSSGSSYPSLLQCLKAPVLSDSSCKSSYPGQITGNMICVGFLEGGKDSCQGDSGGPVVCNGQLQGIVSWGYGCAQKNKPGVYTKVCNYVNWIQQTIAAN

O=C(O[C@@H]1Cc2c(O)cc(O)cc2O[C@@H]1c1ccc(O)c(O)c1)c1cc(O)c(O)c(O)c1 [Epicatechin gallate]
Mean Reduction of Interleukin-1 Alpha (percentage) (interleukin-1 alpha [1]; [6]): 62% (5)*
Viability (percentage) (EPIDERM skin culture [2]; [6]): 143%

Oc1cc(O)c2c(c1)O[C@H](c1ccc(O)c(O)c1)[C@H](O)C2 [Epicatechin]
Mean Reduction of Interleukin-1 Alpha (percentage) (interleukin-1 alpha [1]; [6]): 24% (5)
Viability (percentage) (EPIDERM skin culture [2]; [6]): 111%

O=C(O[C@@H]1Cc2c(O)cc(O)cc2O[C@@H]1c1cc(O)c(O)c(O)c1)c1cc(O)c(O)c(O)c1 [Epigallocatechin gallate]
Mean Reduction of Interleukin-1 Alpha (percentage) (interleukin-1 alpha [1]; 0.4% (w/v) in PBS, fecal protease insult 6 hours, one value per set of experiments): 77% and 71% and 50%
IL-1 reduction (interleukin-1 alpha [3]): 28%
reduction of trypsin activity in solution (in words) ([4]; conclusion from Table 5): effective at reducing trypsin activity in solution
Trypsin Inhibition (IC50) [4]: 0.00002% (w/v)
Viability (percentage) (EPIDERM skin culture [2]; [6]): 126%
Viability (percentage) (EPIDERM skin culture [2]; 0.4% (w/v) in PBS + protease insult, relative to control + PBS): 103% and 101% and 112%

Oc1cc(O)c2c(c1)O[C@H](c1cc(O)c(O)c(O)c1)[C@H](O)C2 [Epigallocatechin]
Mean Reduction of Interleukin-1 Alpha (percentage) (interleukin-1 alpha [1]; [6]): 30% (5)
Viability (percentage) (EPIDERM skin culture [5]): 125%

[Cl-].[Cl-].[Sr+2] [Strontium Chloride]
Mean Reduction of Interleukin-1 Alpha (percentage) (interleukin-1 alpha [1]; 1% in PBS, fecal protease insult 6 hours, one value per set of experiments): 0% (10)
Mean Reduction of Interleukin-1 Alpha (percentage) (interleukin-1 alpha [1]; 10% in PBS, fecal protease insult 6 hours, one value per set of experiments): 15% (10)
Trypsin Inhibition (IC50) [4]: >0.5% (w/v)
